Experimental data taken from patent US10266539B2, “Polymorph of Syk inhibitors” (Gilead Connecticut, Inc., priority 2013, dated 2019).

How the values were obtained:
[1] = Hygroscopicity by dynamic vapor sorption (Example 6A, Q5000SA); format: physicochemical; settings: after full sorption/desorption cycle
Experimental: Hygroscopicity of polymorph Form 3 and polymorph Form 7 at 25° C. was determined by dynamic vapor sorption (DVS) using an automated vapor sorption balance (Q5000SA; TA instruments, New Castle, Del.). Hygroscopicity was studied as a function of relative humidity (RH) over the range of 0 to 90%. Approximately 10 mg of solid sample was placed directly onto the 13 mm quartz DVS sample cup and equilibrated at 0% relative humidity (RH) until a constant weight was achieved. After equilibration, the RH was increased in increments of 10% to reach 90%, and the water sorption was monitored. For desorption, the relative humidity was deceased in a similar manner to accomplish a full sorption/desorption cycle.
For all experiments, the instrument was operated in dm/dt mode (mass variation over time) to determine when equilibrium was reached. A fixed dm/dt value of 0.0010% min^−1 was selected for all RH segments. A maximum stage of 360 minutes and a minimum stage of 60 minutes were selected for these experiments.

[2] = Moisture sorption isotherms (Example 6B, Hiden IGASorp / SMS DVS Intrinsic); format: physicochemical; settings: for Water absorbed up to 90% RH: 25 °C
Experimental: Sorption isotherms were obtained using a Hiden IGASorp moisture sorption analyser, controlled by CFRSorp software. The sample temperature was maintained at 25° C. by a Huber re-circulating water bath. The humidity was controlled by mixing streams of dry and wet nitrogen, with a total flow rate of 250 ml/min. The relative humidity (RH) was measured by a calibrated Vaisala RH probe (dynamic range of 0-95% RH), located near the sample. The weight change, (mass relaxation) of the sample as a function of % RH was constantly monitored by the microbalance (accuracy±0.001 mg).
10-20 mg of sample was placed in a tared mesh stainless steel basket under ambient conditions. The sample was loaded and unloaded at 40% RH and 25° C. (typical room conditions).
A moisture sorption isotherm was performed as outlined in Table 1 below (2 scans giving 1 complete cycle). The standard isotherm was performed at 25° C. at 10% RH intervals over a 0-90% RH range.
The software uses a least squares minimization procedure together with a model of the mass relaxation, to predict an asymptotic value. The measured mass relaxation value must be within 5% of that predicted by the software, before the next % RH value is selected. The minimum equilibration time was set to 1 hour and the maximum to 4 hours. […] The sample was recovered after completion of the isotherm and re-analyzed by XRPD.
In other cases, sorption isotherms were also obtained using a SMS DVS Intrinsic moisture sorption analyser, controlled by DVS Intrinsic Control software v1.0.1.2 (or v 1.0.1.3). […] The humidity was controlled by mixing streams of dry and wet nitrogen, with a total flow rate of 200 ml/min The relative humidity was measured by a calibrated Rotronic probe (dynamic range of 1.0-100% RH), located near the sample. The weight change, (mass relaxation) of the sample as a function of % RH was constantly monitored by the microbalance (accuracy±0.005 mg).
5-20 mg of sample was placed in a tared mesh stainless steel basket under ambient conditions. […] The sample was recovered after completion of the isotherm and re-analyzed by XRPD.

[3] = Solubility in water; format: physicochemical; settings: final pH of the water solubility sample
[4] = PK study in pentagastrin- or famotidine-pretreated dogs; settings: famotidine-pretreated dogs, similar tablet formulation
Experimental: Pentagastrin pretreatment (6 μg/kg intramuscular injection 30 minutes prior to test formulation dosing) in fasted dogs was used to simulate fasting gastric pH in humans. Famotidine pretreatment (20 mg orally 1 hour prior to test formulation dosing) in fasted dogs was used to simulate human gastric pH when acid suppressant was co-dosed with test formulation. The tablets of the mono-MSA salt or bis-MSA salt of a compound of Formula I (conventional tablet and spray dried formulation) were orally administered followed by a 30 mL water flush.

Compound: c1cn2cc(-c3ccc4cn[nH]c4c3)nc(Nc3ccc(N4CCOCC4)cc3)c2n1 [polymorph Form 3]
- Form by XRPD at the end of the DVS experiment [1]: converted to Form 7
- Water absorbed up to 90% RH ([2]; listed as Form 3): ~20 wt. %
- Form by XRPD after DVS analysis ([2]; after isotherm): converted to Form 7
- final pH [3]: (final pH <1.5)
- Increase of AUC0-24 compared to the mono-MSA salt formulation [4]: more than 10 fold

Compound: c1cn2cc(-c3ccc4cn[nH]c4c3)nc(Nc3ccc(N4CCOCC4)cc3)c2n1 [polymorph Form 7]
- Water absorbed up to 90% RH ([2]; listed as Polymorph Form 7): ~21 wt. %
